Experimental data taken from PubChem BioAssay (NCI).
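Five compound concentrations were applied to cells in 96-well plates for 48 hours; endpoints were derived by simple linear interpolation of the resulting dose-response curve. TGI is the concentration that stops growth completely.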

Columns and labels:
Experiment in all cases: NCI tumour cell line growth inhibition, 48 h
[1] = test system: 786-0 renal
[2] = test system: A498 renal
[3] = test system: A549 NSCLC
[4] = test system: CAKI-1 renal
[5] = test system: CCRF-CEM leukemia
[6] = test system: COLO 205 colon
[7] = test system: DLD-1 colon
[8] = test system: DMS 114 small cell lung
[9] = test system: DMS 273 small cell lung
[10] = test system: EKVX NSCLC
[11] = test system: HCC-2998 colon
[12] = test system: HCT-116 colon
[13] = test system: HCT-15 colon
[14] = test system: HL-60(TB) leukemia
[15] = test system: HOP-18 NSCLC
[16] = test system: HOP-62 NSCLC
[17] = test system: HOP-92 NSCLC
[18] = test system: HT29 colon
[19] = test system: K-562 leukemia
[20] = test system: KM12 colon
[21] = test system: LOX IMVI melanoma
[22] = test system: M14 melanoma
[23] = test system: M19-MEL melanoma
[24] = test system: MOLT-4 leukemia
[25] = test system: NCI-H226 lung
[26] = test system: NCI-H23 lung
[27] = test system: NCI-H460 lung
[28] = test system: OVCAR-3 ovarian
[29] = test system: OVCAR-4 ovarian
[30] = test system: OVCAR-5 ovarian
[31] = test system: OVCAR-8 ovarian
[32] = test system: RXF 393 renal
[33] = test system: SF-268 CNS
[34] = test system: SF-295 CNS
[35] = test system: SF-539 CNS
[36] = test system: SK-MEL-2 melanoma
[37] = test system: SK-MEL-28 melanoma
[38] = test system: SK-MEL-5 melanoma
[39] = test system: SK-OV-3 ovarian
[40] = test system: SN12C renal
[41] = test system: SNB-19 CNS
[42] = test system: SNB-75 CNS
[43] = test system: SNB-78 CNS
[44] = test system: SW-620 colon
[45] = test system: TK-10 renal
[46] = test system: U251 CNS
[47] = test system: UACC-257 melanoma
[48] = test system: UACC-62 melanoma
[49] = test system: UO-31 renal

CN(C)CCNC(=O)c1cccc2nc3ccc4ccccc4c3nc12
TGI [1]: 1990 nM | TGI [2]: 241 nM | TGI [3]: 253 nM | TGI [4]: 541 nM | TGI [5]: 1340 nM | TGI [6]: 206 nM | TGI [7]: 1460 nM | TGI [8]: 293 nM | TGI [9]: 246 nM | TGI [10]: 468 nM | TGI [11]: 282 nM | TGI [12]: 205 nM | TGI [13]: 468 nM | TGI [14]: 494 nM | TGI [15]: 446 nM | TGI [16]: 352 nM | TGI [17]: 392 nM | TGI [18]: 1250 nM | TGI [19]: 25600 nM | TGI [20]: 876 nM | TGI [21]: 228 nM | TGI [22]: 1140 nM | TGI [23]: 224 nM | TGI [24]: 124 nM | TGI [25]: 513 nM | TGI [26]: 221 nM | TGI [27]: 135 nM | TGI [28]: 530 nM | TGI [29]: 1020 nM | TGI [30]: 550 nM | TGI [31]: 284 nM | TGI [32]: 198 nM | TGI [33]: 675 nM | TGI [34]: 530 nM | TGI [35]: 271 nM | TGI [36]: 335 nM | TGI [37]: 1050 nM | TGI [38]: 236 nM | TGI [39]: 2060 nM | TGI [40]: 342 nM | TGI [41]: 921 nM | TGI [42]: 517 nM | TGI [43]: 10000 nM | TGI [44]: 313 nM | TGI [45]: 574 nM | TGI [46]: 665 nM | TGI [47]: 531 nM | TGI [48]: 256 nM | TGI [49]: 433 nM
